Entries after “also recorded” stand apart in the source; their conditions may differ. Ends that are not written are not given here.
How the values were obtained:
[1] = test system: bleomycin induced dermal fibrosis; settings: s.c.; single dose prophylactically, or multiple dose regimen starting 3 days after bleomycin; cited from earlier work
PAI-1 = assay: Genes regulated by E4: PAI-1; type: cell-based, human; settings: HuF-T and mouse bleomycin model of pulmonary fibrosis; RT-qPCR, protein expression
Description: (§1) Several experiments have been performed to identify the mechanisms by which E4 exerts its anti-fibrotic activity. Real-time quantitative PCR (qPCR)-based arrays were performed on RNA extracted from primary human lung fibroblasts or mouse lung tissue stimulated with various fibrotic triggers in the absence and presence of E4 treatment in order to identify genes influenced by the endostatin peptide.
(§2) The arrays identified several genes that have been previously implicated in fibrosis to be influenced by E4 treatment. These genes included connective tissue growth factor (CTGF), insulin-like growth factor binding protein (IGFBP)-3, matrix metalloproteases (MMP)-1 and MMP-3, urokinase plasminogen activator (uPA), plasminogen activator inhibitor (PAI)-1, and hepatocyte growth factor (HGF) with levels either decreased or increased in the presence of E4 as shown in TABLE 5.

[2] = test system: TGF-β-induced dermal fibrosis in mouse skin; assay: In vivo TGF-β-induced dermal fibrosis in mouse skin
Description: In Vivo Mouse Experiments. CB57BL6/J male mice were purchased from The Jackson Laboratory (Bar Harbor, ME). Human rE (10 μg/ml) or Endostatin peptides (10 μg/ml) in combination with TGF-β (10 ng/ml), or TGF-β alone were injected intradermally on the back of mice in a total volume of 100 μl 1×PBS. Mice were injected in two different skin sites and sacrificed one week post-injection. Skin surrounding the injection site was harvested and fixed in 10% formalin prior to embedding in paraffin.
Measurement of Skin Dermal Thickness. Six μm sections of paraffin-embedded human and mouse skin tissues were stained with hematoxylin and eosin (H&E). In some experiments, sections were stained with Masson trichrome which identifies collagens. Images were taken on a Nikon Eclipse 800 microscope. The thickness of the dermis was measured in 6 random fields of each section using the image/J® software. Data are shown in arbitrary units.
E4, a peptide representing the carboxy terminus of human endostatin, can attenuate fibrosis triggered by multiple fibrogenic factors. The anti-fibrotic effects of E4 can be detected whether administered concomitantly with or following the fibrogenic trigger. The efficacy of E4 was confirmed in […] pre-clinical models of fibrosis: a) bleomycin-induced dermal fibrosis in vivo in mouse skin, b) TGF-β induced dermal fibrosis in mouse skin, and c) bleomycin-induced pulmonary fibrosis. E4 peptide or a control peptide (E1; representing the amino terminal region of endostatin) were administered at the same time as TGF-β or bleomycin or 3-4 days following TGF-β or bleomycin. Mice were sacrificed one and two weeks after TGF-β-initiation of dermal fibrosis, and two and three weeks after bleomycin-induced pulmonary fibrosis. Two different modes of administration of the E4 peptide were also tested. It was confirmed that intraperitoneal and intratracheal administration was effective. The amount of E4 that was administered was 10 μg/ml in a total volume of 100 μl for skin and IP injections and 50 μl for IT administration.
(§3) For these studies, fibrosis was assessed by measurement of dermal thickness on H&E skin sections (skin), assessment of collagen levels by Masson Trichrome staining (skin and lung), and measurement of collagen levels by Sircol assay (lung). Furthermore, to confirm the mechanism by which E4 exerts its anti-fibrotic effects, the production of extra-cellular matrix (ECM) components, the levels of enzymes that promote matrix stabilization and thus accumulation and levels of those that degrade ECM components, and levels of transcription factors downstream of the pro-fibrotic triggers were evaluated. Results were assessed using the unpaired t test and the 3-way ANOVA (for the ID1 data).

[3] = test system: bleomycin induced lung fibrosis; settings: i.t.; concomitantly or 3 days after bleomycin; cited from earlier work
uPA = assay: Genes regulated by E4: uPA; type: cell-based, human; settings: HuF-T; RT-qPCR, protein expression levels, enzyme activity
Description: as §1, §2

[4] = test system: bleomycin induced lung fibrosis; assay: Bleomycin-induced pulmonary fibrosis in mice (E4); type: in vivo, mouse
Description: FIG. 10A-10C. E4 attenuates bleomycin induced lung fibrosis in vivo. FIG. 10A: Sixty μg of bleomycin was administrated intratracheally in combination with DMSO as a vehicle (Bleo) or E-4 (Bleo+E-4; 10 μg/ml). In some mice, E-4 (10 μg/ml) was administered intratracheally (IT) three days following bleomycin treatment (Bleo+E-4L). PBS was used as a vehicle for bleomycin (V). Lungs were harvested 10 days post-treatment. Representative images stained with H&E (left panel) and Masson trichrome (right panel) are representative of 3 independent experiments. Magnification, 100×. […] FIG. 10B: Quantification of acid soluble collagen obtained from mouse lungs treated with V. Bleo, Bleo+E-4, and Bleo+E-4L. The levels of collagen are presented as μg/mg (lung) from three independent experiments. Unpaired-t test was used for statistical analysis. *P<0.05. […] FIG. 10C: Lower magnification (2×) of mouse lung shown in FIG. 9 (BLM+E4/E4L IT day 10). For Bleo+E4L, Bleo was administered first, then there was a lag of three days between Bleo and E4 administration).
FIG. 11. […]
E4, a peptide representing the carboxy terminus of human endostatin, can attenuate fibrosis triggered by multiple fibrogenic factors. The anti-fibrotic effects of E4 can be detected whether administered concomitantly with or following the fibrogenic trigger. […]
as §3

IGFBP-3 = assay: Genes regulated by E4: IGFBP-3; type: cell-based, human; settings: HuF-T; RT-qPCR, protein expression levels
Description: as §1, §2

E4: SEQ ID NO: 21, amino acids 133-180 of human endostatin with a C-terminal amide (SYCETWRTEAPSATGQASSLLGGRLLGQSAASCHHAYIVLCIENSFMT-NH2; cysteine pairing not given here)
skin thickness [1]: E4 significantly decreased skin
Effect of E4 peptide on PAI-1 (PAI-1): reduces; also recorded: Decrease
TGF-β-induced dermal fibrosis (dermal thickness) ([2]; 10 μg/ml intradermal with TGF-β 10 ng/ml, one week): prevented
TGF-β induced dermal fibrosis, delayed treatment ([2]; TGF-β day 1, peptide IP at day 3, harvested day 7): significant decrease
pulmonary fibrosis (microscopy, hydroxyproline/collagen) [3]: E4 significantly decreased
Effect of E4 peptide on uPA (uPA): Increase
fibrosis and Masson Trichrome staining in lung ([4]; E4 10 μg/ml IT concomitantly with or three days following bleomycin, day 10): marked reduction
collagen levels in mouse lungs ([4]; E4 given 3 days after bleomycin, acid soluble collagen): significantly reduced
bleomycin induced lung fibrosis on day 21 ([4]; bleomycin IT day 1, E4 IP or IT at day 3): significant attenuation
Effect of E4 peptide on IGFBP-3 (IGFBP-3): reduces; also recorded: Decrease
